Experimental data: patent publication US8835375B2 (Applied Nanosystems B.V., priority 2006, dated 2014)
Where two headings read alike, the source gives them in different places. Non-standard residues stand in square brackets, D forms with d. No end group written: not given here. Abu = CC[C@H](N)C(=O)O

What was measured:
[1] = test system: ACE; assay: In vivo; details: cited from earlier work
[2] = test system: Angiotensin Converting Enzyme (ACE); assay: Angiotensin Converting Enzyme (ACE) from Porcine kidney, SIGMA, 8 nM in 100 mM Tris-HCl, 300 mm NaCl, 10 μM Zn, pH 8.3; details: 37° C.
[3] = test system: Angiotensin Converting Enzyme (ACE); assay: Angiotensin Converting Enzyme (ACE) from Porcine kidney, SIGMA, 4 nM in 100 mM Tris-HCl, 300 mm NaCl, 10 μM Zn, pH 8.3; details: 37° C., up to 26 hour
[4] = proteolytic resistance in pig pancreas homogenate; format: in vitro ADME; details: for metabolised at 3 h, 0.8 μmol angiotensin/mg pancreas homogenate: read-out: Degradation after 3 h (%)
Method: (§1) Angiotensin (wildtype or cyclised analogs, chemically produced [Cyc 4-7] Ang(1-7) or biologically produced [Cyc 4-7] Ang(1-8)) was added to homogenates of pig liver (0.2 μmol angiotensin/mg liver homogenate), pig kidney (0.2 μmol angiotensin/mg kidney homogenate), pig pancreas (0.8 μmol angiotensin/mg pancreas homogenate) or plasma (1 μmol angiotensin/ml) and incubated at 37° C., pH 7.4 or pH 5, for different time periods up to 30 hours. The enzymatic reaction was stopped by 100° C. for 5 min. The remaining amount of intact angiotensin was determined by RP-HPLC with C18-column, mobile phase gradient and 214 nm detection.

[5] = proteolytic resistance in pig kidney homogenate; format: in vitro ADME; details: for half-life / metabolised at 3 h, 0.2 μmol angiotensin/mg kidney homogenate / half-life at 0.2 μmol/mg kidney homogenate: pig; for metabolised at 3 h, 0.2 μmol angiotensin/mg kidney homogenate / half-life at 0.2 μmol/mg kidney homogenate: pig kidney homogenate; for metabolised at 3 h, 0.2 μmol angiotensin/mg kidney homogenate: read-out: Degradation after 3 h (%)
Method: as §1

[6] = proteolytic resistance in pig liver homogenate; format: in vitro ADME; details: for half-life / metabolised at 3 h, 0.2 μmol angiotensin/mg liver homogenate / half-life at 0.2 μmol/mg liver homogenate: pig; for metabolised at 3 h, 0.2 μmol angiotensin/mg liver homogenate / half-life at 0.2 μmol/mg liver homogenate: pig liver homogenate; for metabolised at 3 h, 0.2 μmol angiotensin/mg liver homogenate: read-out: Degradation after 3 h (%)
Method: as §1

[7] = proteolytic resistance in plasma; format: in vitro ADME; details: pH 7.4, 37° C.; for metabolised at 3 h, 1 μmol/ml: read-out: Degradation after 3 h (%)
Method: as §1

[8] = target: T1, Angiotensin Converting Enzyme (ACE) from Porcine kidney (Sus scrofa, UniProt F1RRW5); assay: resistance against angiotensin converting enzyme (ACE); format: in vitro ADME; details: 50 μM peptide; for breakdown by ACE: 37° C., pH 8.3
T1 construct: Angiotensin Converting Enzyme (ACE) from Porcine kidney, SIGMA; purchased SIGMA; host or cells: porcine kidney (tissue-derived)
T1 sequence (F1RRW5 34-1309): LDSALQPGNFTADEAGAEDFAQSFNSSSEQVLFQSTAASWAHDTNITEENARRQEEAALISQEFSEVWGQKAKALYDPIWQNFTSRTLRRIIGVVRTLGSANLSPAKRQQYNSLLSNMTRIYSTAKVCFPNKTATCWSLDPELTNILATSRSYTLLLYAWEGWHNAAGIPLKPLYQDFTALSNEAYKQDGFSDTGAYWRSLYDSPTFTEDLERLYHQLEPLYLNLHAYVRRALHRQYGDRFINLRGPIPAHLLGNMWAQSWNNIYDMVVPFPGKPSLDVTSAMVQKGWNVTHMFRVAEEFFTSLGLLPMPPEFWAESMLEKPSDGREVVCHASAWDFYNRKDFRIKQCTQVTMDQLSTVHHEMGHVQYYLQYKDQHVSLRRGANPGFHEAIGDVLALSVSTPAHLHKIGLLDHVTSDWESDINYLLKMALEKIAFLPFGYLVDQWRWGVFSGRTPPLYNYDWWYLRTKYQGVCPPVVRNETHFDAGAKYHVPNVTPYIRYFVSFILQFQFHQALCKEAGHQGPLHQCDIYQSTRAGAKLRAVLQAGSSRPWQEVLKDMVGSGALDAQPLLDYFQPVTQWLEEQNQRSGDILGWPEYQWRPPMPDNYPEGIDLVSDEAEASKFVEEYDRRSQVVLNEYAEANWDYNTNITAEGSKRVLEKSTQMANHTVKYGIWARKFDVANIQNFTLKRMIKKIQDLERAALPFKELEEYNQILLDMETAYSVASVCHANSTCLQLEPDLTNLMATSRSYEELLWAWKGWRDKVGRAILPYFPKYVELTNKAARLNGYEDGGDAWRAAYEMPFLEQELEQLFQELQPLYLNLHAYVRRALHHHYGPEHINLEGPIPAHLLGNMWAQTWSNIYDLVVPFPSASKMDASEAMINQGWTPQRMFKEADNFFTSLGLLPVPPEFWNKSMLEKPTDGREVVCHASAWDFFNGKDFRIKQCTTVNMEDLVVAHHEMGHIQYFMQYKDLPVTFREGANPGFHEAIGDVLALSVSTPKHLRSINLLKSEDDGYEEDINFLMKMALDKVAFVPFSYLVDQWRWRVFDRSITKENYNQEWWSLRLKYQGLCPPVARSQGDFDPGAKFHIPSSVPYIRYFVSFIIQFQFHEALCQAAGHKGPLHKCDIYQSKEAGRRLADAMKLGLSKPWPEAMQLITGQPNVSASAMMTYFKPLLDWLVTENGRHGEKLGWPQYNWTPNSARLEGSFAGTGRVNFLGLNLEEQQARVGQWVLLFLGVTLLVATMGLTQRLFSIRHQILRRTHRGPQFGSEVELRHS
Method: Angiotensin Converting Enzyme (ACE) from Porcine kidney, SIGMA, was used at 4 nM final concentration, FIGS. 2A and 2B, or at 8 nM final concentration, FIGS. 2C and 2D. Natural Ang(1-7) was purchased from Bachem. All experiments were performed in duplicate in a waterbath at 37° C., incubations were performed in a buffer containing 100 mM Tris-HCl, 300 mm NaCl, 10 μM Zn, pH 8.3. Thioether-ring-containing angiotensin was obtained by bacterial production using L. lactis containing the nisin modification and transporter enzymes, NisBTC. Natural angiotensin(1-7), lanthionine-containing angiotensin(1-7) and methyllanthionine-containing angiotensin(1-7) were each used at a concentration of 50 μM. Both the lanthionine and the methyllanthionine variant had the thioether bridge between positions 4 and 7. The reaction was stopped by 100° C. for 5 minutes and put on ice. Samples were centrifuged for 10 min at 14000 rpm at 4° C. and quantified by RP-HPLC. Identification of the HPLC peaks was performed using Maldi TOF mass spectrometry. All points are the average of two measurements.

[9] = in vivo stability during continuous intravenous infusion in the rat (Maldi TOF of plasma); design: species or system Sprague Dawley rat; details: i.v. infusion 1 mL/hour of 100 μM of each peptide together, sample taken at 120 min
Method: Rats (Sprague Dawley) were infused during 2 hours at a speed of 1 mL/hour with a solution containing simultaneously two compounds: both 100 μM natural Ang(1-7) as well as 100 μM methyllanthionine-containing angiotensin(1-7) with the thioether bridge between positions 4 and 7. Methyllanthionine-containing angiotensin(1-7) was prepared using L. lactis expressing lantibiotic enzymes as described in example 1. Maldi TOF analyses were performed on plasma samples as described in example 3. Undiluted sample (upper spectrum, mass peak of 826.06 Da at the arrow) and 100-fold diluted sample (lower spectrum, mass peak of 826.47 Da at the arrow) both gave a peak of the right mass, i.e. corresponding to intact methyllanthionine-containing angiotensin(1-7) (Theoretical mass M+H^+ equals 825.9758). […] In a control experiment mixing natural angiotensin(1-7) ex vivo with rat plasma, allowed subsequent detection of natural angiotensin(1-7) (not shown). Experimental details are mentioned in the text of example 3.
A male Sprague Dawley rat was kept under O2/Isoflurane (1.5-2%) narcosis throughout the study. A jugular vein catheter was applied and connected to a syringe containing 0.9% physiological salt solution. The syringe was mounted onto an infusion pump and the flow rate set to 1 mL/hour. […]

[10] = pig, pig pancreas homogenate, pH 7.4, 37° C.
[11] = pH 7.4, versus linear angiotensin(1-7)
[12] = pig, pig pancreas homogenate, pH 5.0, 37° C.
[13] = tissue homogenate, pH 7.4, 37° C.

For DRVYIHP, the cleaved bond [1] is listed as “I5-H6”, the cleaved bond [2] is listed as “I5-H6, major” and the cleaved bond [3] is listed as “I5-H6, major”.

For `CC[C@H](C)[C@@H]1NC(=O)C(NC(=O)[C@@H](NC(=O)[C@H](CCCNC(=N)N)NC(=O)[C@@H](N)CC(=O)O)C(C)C)C(C)SC[C@@H](C(=O)N[C@@H](Cc2ccccc2)C(=O)O)NC(=O)[C@H](Cc2c[nH]cn2)NC1=O` (stereo partly drawn) [[Cyc^4-7]Ang(1-8), Asp-Arg-Val-Abu-Ile-His-Ala-Phe], the half-life ([4]; pig, pH 7.4, 37° C.) was 483 min, the metabolised at 3 h, 0.8 μmol angiotensin/mg pancreas homogenate [4, 10] was 21% and the half-life ([5]; pH 7.4, 37° C.) was 7 min. The metabolised at 3 h, 0.2 μmol angiotensin/mg kidney homogenate ([5]; pH 7.4, 37° C.) was 100%, the half-life ([6]; pH 7.4, 37° C.) was 67 min and the metabolised at 3 h, 0.2 μmol angiotensin/mg liver homogenate ([6]; pH 7.4, 37° C.) was 100%.

With `CC[C@H](C)[C@H](NC(=O)[C@H](Cc1ccc(O)cc1)NC(=O)[C@@H](NC(=O)[C@H](CCCNC(=N)N)NC(=O)[C@@H](N)CC(=O)O)C(C)C)C(=O)N[C@@H](Cc1cnc[nH]1)C(=O)N1CCC[C@H]1C(=O)N[C@@H](Cc1ccccc1)C(=O)O` [Ang(1-8), Asp-Arg-Val-Tyr-Ile-His-Pro-Phe, reference compound] the metabolised at 3 h, 0.8 μmol angiotensin/mg pancreas homogenate [4, 10] was 70%, the metabolised at 3 h, 0.2 μmol angiotensin/mg kidney homogenate ([5]; pH 7.4, 37° C.) was 100% and the metabolised at 3 h, 0.2 μmol angiotensin/mg liver homogenate ([6]; pH 7.4, 37° C.) was 98%.

For `CC[C@H](C)[C@@H]1NC(=O)[C@H](NC(=O)[C@@H](NC(=O)[C@H](CCCNC(=N)N)NC(=O)[C@@H](N)CC(=O)O)C(C)C)CSC[C@@H](C(=O)O)NC(=O)[C@H](Cc2c[nH]cn2)NC1=O` [[Cyc^4-7]Ang(1-7), Asp-Arg-Val-Ala-Ile-His-Ala], the “Half-life (min)” value ([4]; pH 5.0, 37° C.) was “∞”, the “increase of half-life by 4,7-cyclisation” value [4, 11] was “more than 18 fold” and the metabolised at 3 h, 0.8 μmol angiotensin/mg pancreas homogenate [4, 12] was 6%. It also gave a metabolised at 3 h, 0.8 μmol angiotensin/mg pancreas homogenate [4, 10] of 4%, a half-life ([4]; pig, tissue homogenate, pH 7.4, 37° C., cell printed in hours) of over 1440 min and a half-life [7] of 926 min. For the same molecule, the metabolised at 3 h, 1 μmol/ml [7] was 15%, the “increase of half-life by 4,7-cyclisation” value [5, 11] was 6 fold and the metabolised at 3 h, 0.2 μmol angiotensin/mg kidney homogenate ([5]; pH 5.0, 37° C.) was 4%. The metabolised at 3 h, 0.2 μmol angiotensin/mg kidney homogenate ([5]; pH 7.4, 37° C.) was 91%, the half-life ([5]; tissue homogenate, pH 5.0, 37° C., cell printed in hours) was over 1440 min and the half-life [5, 13] was 32 min. The “increase of half-life by ring introduction” value ([6]; pH 5, versus linear angiotensin(1-7)) was 5 fold, the “increase of half-life by 4,7-cyclisation” value [6, 11] was 2 fold and the metabolised at 3 h, 0.2 μmol angiotensin/mg liver homogenate ([6]; pH 5.0, 37° C.) was 8%. For the same molecule, the metabolised at 3 h, 0.2 μmol angiotensin/mg liver homogenate ([6]; pH 7.4, 37° C.) was 82%, the half-life ([6]; tissue homogenate, pH 5.0, 37° C.) was 708 min and the half-life [6, 13] was 68 min.

In the case of `CC[C@H](C)[C@H](NC(=O)[C@H](Cc1ccc(O)cc1)NC(=O)[C@@H](NC(=O)[C@H](CCCNC(=N)N)NC(=O)[C@@H](N)CC(=O)O)C(C)C)C(=O)N[C@@H](Cc1c[nH]cn1)C(=O)N1CCC[C@H]1C(=O)O` [Ang(1-7), DRVYIHP, reference compound], the “Half-life (min)” value ([4]; pH 5.0, 37° C.) is reported as “∞”, the metabolised at 3 h, 0.8 μmol angiotensin/mg pancreas homogenate [4, 12] is reported as 16% and the half-life at 0.8 μmol/mg pancreas homogenate [4, 10] is reported as 81 min. The metabolised at 3 h, 0.8 μmol angiotensin/mg pancreas homogenate [4, 10] was 81%, the half-life at 1 μmol/ml [7] was 166 min and the metabolised at 3 h, 1 μmol/ml [7] was 55%. The “formation of Ang(1-5) by incubation with ACE” value (“formation” below) ([8]; 4 nM ACE) was “resulted in angiotensin(1-5) formation”, the “breakdown by ACE” value ([8]; 4 nM ACE, 26 hour incubation) was “completely broken down” and the “formation” value ([8]; 8 nM ACE) was “emergence of angiotensin(1-5)”. For the same molecule, the “breakdown by ACE” value ([8]; 8 nM ACE) was “rapidly broken down”, the half-life at 0.2 μmol/mg kidney homogenate ([5]; pH 5.0, 37° C.) was 28 min and the metabolised at 3 h, 0.2 μmol angiotensin/mg kidney homogenate ([5]; pH 5.0, 37° C.) was 98%. The half-life at 0.2 μmol/mg kidney homogenate ([5]; pH 7.4, 37° C.) was 5 min, the metabolised at 3 h, 0.2 μmol angiotensin/mg kidney homogenate ([5]; pH 7.4, 37° C.) was 100% and the “detection of intact peptide in plasma by Maldi TOF” value [9] was “not detected at all”. The half-life at 0.2 μmol/mg liver homogenate ([6]; pH 5.0, 37° C.) was 153 min, the metabolised at 3 h, 0.2 μmol angiotensin/mg liver homogenate ([6]; pH 5.0, 37° C.) was 56% and the half-life at 0.2 μmol/mg liver homogenate ([6]; pH 7.4, 37° C.) was 32 min. It also gave a metabolised at 3 h, 0.2 μmol angiotensin/mg liver homogenate ([6]; pH 7.4, 37° C.) of 100%.

With “DRV[Abu]IHA [methyllanthionine-containing Ang(1-7)]” the “formation” value ([8]; 4 nM ACE) was “did not lead to the appearance of Ang(1-5)”, the “breakdown by ACE” value ([8]; 4 nM ACE, 26 hour incubation) was “no degradation” and the “detection of intact peptide in plasma by Maldi TOF” value [9] was “detected”.

For DRVAIHA, the not cleaved [2] was “no breakdown observed”.
